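Assay format: 96-well plates, 48-hour exposure. TGI: total growth inhibition.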
Key:
Assay in all cases: NCI tumour cell line growth inhibition, 48 h
ACHN renal = test system: ACHN renal
CCRF-CEM leukemia = test system: CCRF-CEM leukemia
COLO 205 colon = test system: COLO 205 colon
HCC-2998 colon = test system: HCC-2998 colon
HT29 colon = test system: HT29 colon
M14 melanoma = test system: M14 melanoma
MOLT-4 leukemia = test system: MOLT-4 leukemia
NCI-H226 lung = test system: NCI-H226 lung
NCI-H23 lung = test system: NCI-H23 lung
NCI-H522 lung = test system: NCI-H522 lung
OVCAR-4 ovarian = test system: OVCAR-4 ovarian
OVCAR-5 ovarian = test system: OVCAR-5 ovarian
RPMI-8226 leukemia = test system: RPMI-8226 leukemia
RXF 393 renal = test system: RXF 393 renal
SF-268 CNS = test system: SF-268 CNS
SF-539 CNS = test system: SF-539 CNS
SK-MEL-5 melanoma = test system: SK-MEL-5 melanoma
SR leukemia = test system: SR leukemia
U251 CNS = test system: U251 CNS
HCT-116 colon = test system: HCT-116 colon

Row | SMILES | TGI (ACHN renal) [µM] | TGI (CCRF-CEM leukemia) [µM] | TGI (COLO 205 colon) [µM] | TGI (HCC-2998 colon) [µM] | TGI (HT29 colon) [µM] | TGI (M14 melanoma) [µM] | TGI (MOLT-4 leukemia) [µM] | TGI (NCI-H226 lung) [µM] | TGI (NCI-H23 lung) [µM] | TGI (NCI-H522 lung) [µM] | TGI (OVCAR-4 ovarian) [µM] | TGI (OVCAR-5 ovarian) [µM] | TGI (RPMI-8226 leukemia) [µM] | TGI (RXF 393 renal) [µM] | TGI (SF-268 CNS) [µM] | TGI (SF-539 CNS) [µM] | TGI (SK-MEL-5 melanoma) [µM] | TGI (SR leukemia) [µM] | TGI (U251 CNS) [µM] | TGI (HCT-116 colon) [µM]
1 | O=C(c1ccco1)C1CC(c2c(O)ccc3ccccc23)=NN1 (stereo not drawn) | 25 | 93 | 21.7 | 25.7 | 24 | 26 | 42.7 | 40.2 | 37.7 | 22.5 | > 100 | 36.3 | 86.6 | 50 | 30.2 | 26.7 | 29.7 | 42.8 | 34.1 | –
2 | O=[N+]([O-])c1ccc(C2=Nc3ccccc3SC(c3ccccc3)C2)cc1 (stereo not drawn) | 36.2 | 37.2 | 31.8 | 29 | – | 36.3 | > 100 | 54 | – | 26.7 | 27.3 | 36.6 | 48.4 | 40 | 63.3 | 40.3 | 32.9 | 45.2 | 26.3 | 24.2
3 | COC(=O)C1=C(O)C(C(=O)OC)[C@@]2(O)[C@@H](C(=O)OC)[C@H](C)[C@@H](C)[C@@H]1[C@@H]2C(=O)OC (stereo partly drawn) | > 100 | > 100 | – | > 100 | > 100 | > 100 | > 100 | > 100 | > 100 | 92.2 | – | > 100 | > 100 | 72.3 | > 100 | > 100 | – | > 100 | > 100 | > 100
4 | O=C(OCc1ccccc1)C(Cc1ccccc1)N(Cc1ccccc1)Cc1ccccc1 (stereo not drawn) | > 100 | > 100 | > 100 | > 100 | > 100 | > 100 | > 100 | – | > 100 | > 100 | > 100 | > 100 | > 100 | > 100 | > 100 | > 100 | > 100 | > 100 | > 100 | > 100

— PubChem BioAssay (NCI)
